Source: patent US8927500B2, “Peptidomimetic macrocycles” (Aileron Therapeutics, Inc., priority 2012, dated 2015)
Where a SMILES comes first, the peptide text is derived from it. Bridges are numbered along the chain shown (N, C = ends). [ ]: non-standard residue; d: D form. Trp(6-Cl) = N[C@@H](Cc1c[nH]c2cc(Cl)ccc12)C(=O)O; R8 = C=CCCCCCC[C@@](C)(N)C(=O)O; Cba = N[C@@H](CC1CCC1)C(=O)O; hLeu = CC(C)CC[C@H](N)C(=O)O; S5 = C=CCCC[C@](C)(N)C(=O)O; Nle = CCCC[C@H](N)C(=O)O

Tests used:
MDM2 = MDM2 (Homo sapiens, UniProt Q00987); assay: Competitive fluorescence polarization assay for MDM2; type: binding; conditions: competitive FP assay, MDM2; for IC50: read-out: IC50 (MDM2); for Ki: read-out: Ki (MDM2)
MDMX = molecular target: T1, MDMX (Homo sapiens, UniProt O15151); assay: Competitive fluorescence polarization assay for MDMX; type: binding; conditions: competitive FP assay; for IC50: read-out: IC50 (MDMX); for Ki: read-out: Ki (MDMX)
T1 sequence (O15151 1-125): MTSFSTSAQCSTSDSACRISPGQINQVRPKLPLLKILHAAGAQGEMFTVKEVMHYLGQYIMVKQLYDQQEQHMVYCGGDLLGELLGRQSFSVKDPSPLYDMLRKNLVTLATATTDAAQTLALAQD

Sequence of MDM2 (Q00987 1-125): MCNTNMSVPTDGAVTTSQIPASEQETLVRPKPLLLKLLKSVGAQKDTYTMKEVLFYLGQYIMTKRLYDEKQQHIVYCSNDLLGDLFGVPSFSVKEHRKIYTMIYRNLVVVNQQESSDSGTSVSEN

| Compound | IC50 (MDM2) | Ki (MDM2) | IC50 (MDMX) | Ki (MDMX) |
| --- | --- | --- | --- | --- |
| CCCC[C@H](NC(=O)[C@H](Cc1c[nH]c2ccccc12)NC(=O)[C@H](C)NC(=O)[C@]1(C)CCCC=CCCCCCC[C@@](C)(NC(=O)[C@H](Cc2ccccc2)NC(=O)[C@@H](NC(=O)[C@H](CC(C)C)NC(C)=O)[C@@H](C)O)C(=O)N[C@@H](CCC(=O)O)C(=O)N[C@@H](Cc2ccc(O)cc2)C(=O)N[C@@H](Cc2c[nH]c3ccccc23)C(=O)N[C@@H](C)C(=O)N[C@@H](CCC(N)=O)C(=O)N[C@@H](CC2CCC2)C(=O)N1)C(=O)N[C@H](C)C(N)=O [compound 271] (Ac-LTF[R8]EYWAQ[Cba][S5]AW[Nle][dA]-NH2; staple 4-11) | < 10 nM | < 10 nM | 10 to 100 nM | < 10 nM |
| CCCC[C@H](NC(=O)[C@H](Cc1c[nH]c2ccccc12)NC(=O)[C@H](C)NC(=O)[C@]1(C)CCCC=CCCCCCC[C@@](C)(NC(=O)[C@H](Cc2ccccc2)NC(=O)[C@@H](NC(=O)[C@H](CCC(=O)O)NC(C)=O)[C@@H](C)O)C(=O)N[C@@H](CCC(=O)O)C(=O)N[C@@H](Cc2ccc(O)cc2)C(=O)N[C@@H](Cc2c[nH]c3ccccc23)C(=O)N[C@@H](C)C(=O)N[C@@H](CCC(N)=O)C(=O)N[C@@H](CC2CCC2)C(=O)N1)C(=O)N[C@H](C)C(N)=O [compound 272] (Ac-ETF[R8]EYWAQ[Cba][S5]AW[Nle][dA]-NH2; staple 4-11) | < 10 nM | < 10 nM | 10 to 100 nM | < 10 nM |
| CCCC[C@H](NC(=O)[C@H](Cc1c[nH]c2ccccc12)NC(=O)[C@H](C)NC(=O)[C@]1(C)CCCC=CCCCCCC[C@@](C)(NC(=O)[C@H](Cc2ccccc2)NC(=O)[C@@H](NC(=O)[C@H](CCC(=O)O)NC(C)=O)[C@@H](C)O)C(=O)N[C@@H](C)C(=O)N[C@@H](Cc2ccc(O)cc2)C(=O)N[C@@H](Cc2c[nH]c3ccccc23)C(=O)N[C@@H](C)C(=O)N[C@@H](CCC(N)=O)C(=O)N[C@@H](CC(C)C)C(=O)N1)C(=O)N[C@H](C)C(N)=O [compound 276] (Ac-ETF[R8]AYWAQL[S5]AW[Nle][dA]-NH2; staple 4-11) | 10 to 100 nM | < 10 nM | 10 to 100 nM | < 10 nM |
| CCCC[C@H](NC(=O)[C@H](Cc1c[nH]c2ccccc12)NC(=O)[C@H](C)NC(=O)[C@]1(C)CCCC=CCCCCCC[C@@](C)(NC(=O)[C@H](Cc2ccccc2)NC(=O)[C@@H](NC(=O)[C@H](CC(C)C)NC(C)=O)[C@@H](C)O)C(=O)N[C@@H](CCC(=O)O)C(=O)N[C@@H](Cc2ccc(O)cc2)C(=O)N[C@@H](Cc2c[nH]c3ccccc23)C(=O)N[C@@H](C)C(=O)N[C@@H](CCC(N)=O)C(=O)N[C@@H](CC(C)C)C(=O)N1)C(=O)N[C@H](C)C(N)=O [compound 277] (Ac-LTF[R8]EYWAQL[S5]AW[Nle][dA]-NH2; staple 4-11) | 10 to 100 nM | < 10 nM | 10 to 100 nM | < 10 nM |
| CCCC[C@H](NC(=O)[C@H](Cc1c[nH]c2ccccc12)NC(=O)[C@H](C)NC(=O)[C@]1(C)CCCC=CCCCCCC[C@@](C)(NC(=O)[C@H](Cc2ccccc2)NC(=O)[C@@H](NC(=O)[C@H](CCC(=O)O)NC(C)=O)[C@@H](C)O)C(=O)N[C@@H](CCC(=O)O)C(=O)N[C@@H](Cc2ccc(O)cc2)C(=O)N[C@@H](Cc2c[nH]c3ccccc23)C(=O)N[C@@H](C)C(=O)N[C@@H](CCC(N)=O)C(=O)N[C@@H](CC(C)C)C(=O)N1)C(=O)N[C@H](C)C(N)=O [compound 278] (Ac-ETF[R8]EYWAQL[S5]AW[Nle][dA]-NH2; staple 4-11) | 10 to 100 nM | < 10 nM | 10 to 100 nM | < 10 nM |
| CCCC[C@H](NC(=O)[C@H](C)NC(=O)[C@H](C)NC(=O)[C@]1(C)CCCC=CCCCCCC[C@@](C)(NC(=O)[C@H](Cc2ccccc2)NC(=O)[C@@H](NC(=O)[C@H](CC(C)C)NC(C)=O)[C@@H](C)O)C(=O)N[C@@H](C)C(=O)N[C@@H](Cc2ccc(O)cc2)C(=O)N[C@@H](Cc2c[nH]c3ccccc23)C(=O)N[C@@H](CO)C(=O)N[C@@H](CCC(N)=O)C(=O)N[C@@H](CC(C)C)C(=O)N1)C(=O)N[C@@H](C)C(N)=O [compound 306] (Ac-LTF[R8]AYWSQL[S5]AA[Nle]A-NH2; staple 4-11) | < 10 nM | < 10 nM | 100 to 1000 nM | 10 to 100 nM |
| CCCC[C@H](NC(=O)[C@H](C)NC(=O)[C@H](C)NC(=O)[C@]1(C)CCCC=CCCCCCC[C@@](C)(NC(=O)[C@H](Cc2ccccc2)NC(=O)[C@@H](NC(=O)[C@H](CC(C)C)NC(C)=O)[C@@H](C)O)C(=O)N[C@@H](CCC(=O)O)C(=O)N[C@@H](Cc2ccc(O)cc2)C(=O)N[C@@H](Cc2c[nH]c3ccccc23)C(=O)N[C@@H](C)C(=O)N[C@@H](CCC(N)=O)C(=O)N[C@@H](CCC(C)C)C(=O)N1)C(=O)N[C@@H](C)C(N)=O [compound 318] (Ac-LTF[R8]EYWAQ[hLeu][S5]AA[Nle]A-NH2; staple 4-11) | 10 to 100 nM | 10 to 100 nM | 100 to 1000 nM | 10 to 100 nM |
| CCCC[C@H](NC(=O)[C@H](C)NC(=O)[C@H](C)NC(=O)[C@]1(C)CCCC=CCCCCCC[C@@](C)(NC(=O)[C@H](Cc2ccccc2)NC(=O)[C@@H](NC(=O)[C@H](C)NC(=O)[C@H](C)NC(C)=O)[C@@H](C)O)C(=O)N[C@@H](C)C(=O)N[C@@H](Cc2ccc(O)cc2)C(=O)N[C@@H](Cc2c[nH]c3ccccc23)C(=O)N[C@@H](C)C(=O)N[C@@H](CCC(N)=O)C(=O)N[C@@H](CC(C)C)C(=O)N1)C(=O)N[C@@H](C)C(N)=O [compound 319] (Ac-AATF[R8]AYWAQL[S5]AA[Nle]A-NH2; staple 5-12) | 10 to 100 nM | 10 to 100 nM | 100 to 1000 nM | 100 to 1000 nM |
| CCCC[C@H](NC(=O)[C@H](C)NC(=O)[C@H](C)NC(=O)[C@]1(C)CCCC=CCCCCCC[C@@](C)(NC(=O)[C@H](Cc2ccccc2)NC(=O)[C@@H](NC(=O)[C@H](CC(C)C)NC(C)=O)[C@@H](C)O)C(=O)N[C@@H](C)C(=O)N[C@@H](Cc2ccc(O)cc2)C(=O)N[C@@H](Cc2c[nH]c3ccccc23)C(=O)N[C@@H](C)C(=O)N[C@@H](CCC(N)=O)C(=O)N[C@@H](CC(C)C)C(=O)N1)C(=O)N[C@@H](C)C(=O)N[C@@H](C)C(N)=O [compound 320] | 10 to 100 nM | 10 to 100 nM | 100 to 1000 nM | 100 to 1000 nM |
| CCCC[C@H](NC(=O)[C@H](C)NC(=O)[C@H](C)NC(=O)[C@]1(C)CCCC=CCCCCCC[C@@](C)(NC(=O)[C@H](Cc2ccccc2)NC(=O)[C@@H](NC(=O)[C@H](CC(C)C)NC(=O)[C@H](C)NC(C)=O)[C@@H](C)O)C(=O)N[C@@H](C)C(=O)N[C@@H](Cc2ccc(O)cc2)C(=O)N[C@@H](Cc2c[nH]c3ccccc23)C(=O)N[C@@H](C)C(=O)N[C@@H](CCC(N)=O)C(=O)N[C@@H](CC(C)C)C(=O)N1)C(=O)N[C@@H](C)C(=O)N[C@@H](C)C(N)=O [compound 321] | 10 to 100 nM | < 10 nM | 100 to 1000 nM | 10 to 100 nM |
| CCCC[C@H](NC(=O)[C@H](C)NC(=O)[C@H](C)NC(=O)[C@]1(C)CCCC=CCCCCCC[C@@](C)(NC(=O)[C@H](Cc2ccccc2)NC(=O)[C@@H](NC(=O)[C@H](CC(C)C)NC(C)=O)[C@@H](C)O)C(=O)N[C@@H](C)C(=O)N[C@@H](Cc2ccc(O)cc2)C(=O)N[C@@H](Cc2c[nH]c3ccccc23)C(=O)N[C@@H](C)C(=O)N[C@@H](CCC(N)=O)C(=O)N[C@@H](CC2CCC2)C(=O)N1)C(=O)N[C@@H](C)C(=O)N[C@@H](C)C(N)=O [compound 322] (Ac-LTF[R8]AYWAQ[Cba][S5]AA[Nle]AA-NH2; staple 4-11) | 10 to 100 nM | 10 to 100 nM | 100 to 1000 nM | 100 to 1000 nM |
| CCCC[C@H](NC(=O)[C@H](C)NC(=O)[C@H](C)NC(=O)[C@]1(C)CCCC=CCCCCCC[C@@](C)(NC(=O)[C@H](Cc2ccccc2)NC(=O)[C@@H](NC(=O)[C@H](CC(C)C)NC(C)=O)[C@@H](C)O)C(=O)N[C@@H](C)C(=O)N[C@@H](Cc2ccc(O)cc2)C(=O)N[C@@H](Cc2c[nH]c3ccccc23)C(=O)N[C@@H](C)C(=O)N[C@@H](CCC(N)=O)C(=O)N[C@@H](CCC(C)C)C(=O)N1)C(=O)N[C@@H](C)C(=O)N[C@@H](C)C(N)=O [compound 323] | 10 to 100 nM | 10 to 100 nM | > 1000 nM | 100 to 1000 nM |
| CC(=O)N[C@@H](C)C(=O)N[C@@H](CC(C)C)C(=O)N[C@H](C(=O)N[C@@H](Cc1ccccc1)C(=O)N[C@]1(C)CCCCCCC=CCCC[C@@](C)(C(=O)N[C@@H](CO)C(=O)N[C@@H](C)C(=O)N[C@@H](C)C(=O)N[C@@H](C)C(N)=O)NC(=O)[C@H](CC2CCC2)NC(=O)[C@H](CCC(N)=O)NC(=O)[C@H](C)NC(=O)[C@H](Cc2c[nH]c3ccccc23)NC(=O)[C@H](Cc2ccc(O)cc2)NC(=O)[C@H](CCC(=O)O)NC1=O)[C@@H](C)O [compound 329] | 10 to 100 nM | < 10 nM | 10 to 100 nM | 10 to 100 nM |
| CC(=O)N[C@@H](Cc1ccccc1)C(=O)N[C@]1(C)CCCCCCC=CCCC[C@@](C)(C(=O)N[C@@H](C)C(=O)N[C@@H](C)C(=O)N[C@@H](C)C(=O)N[C@@H](C)C(=O)N[C@@H](C)C(=O)N[C@@H](C)C(=O)N[C@H](C)C(N)=O)NC(=O)[C@H](CC(C)C)NC(=O)[C@H](C)NC(=O)[C@H](CCC(=O)O)NC(=O)[C@H](Cc2c[nH]c3cc(Cl)ccc23)NC(=O)[C@H](Cc2ccc(O)cc2)NC(=O)[C@H](C)NC1=O [compound 339] (Ac-F[R8]AY[Trp(6-Cl)]EAL[S5]AAAAAA[dA]-NH2; staple 2-9) | < 10 nM | < 10 nM | 100 to 1000 nM | 10 to 100 nM |
| CC(=O)N[C@@H](CCCNC(=N)N)C(=O)N[C@H](C(=O)N[C@@H](Cc1ccccc1)C(=O)N[C@]1(C)CCCCCCC=CCCC[C@@](C)(C(=O)N[C@@H](CO)C(=O)N[C@@H](C)C(=O)N[C@@H](C)C(N)=O)NC(=O)[C@H](CC2CCC2)NC(=O)[C@H](CCC(N)=O)NC(=O)[C@H](C)NC(=O)[C@H](Cc2c[nH]c3ccccc23)NC(=O)[C@H](Cc2ccc(O)cc2)NC(=O)[C@H](CCC(=O)O)NC1=O)[C@@H](C)O [compound 360] (Ac-RTF[R8]EYWAQ[Cba][S5]SAA-NH2; staple 4-11) | < 10 nM | < 10 nM | < 10 nM | < 10 nM |
